In US20250228953A1, “INTRACELLULAR TARGETING OF OLIGONUCLEOTIDES” (Entrada Therapeutics, Inc., priority 2021, published 2025):

Test system: eGFP-654 transgene
Assay: eGFP protein restoration in liver by ELISA
Assay type: in vivo, mouse
Details: 1 week
Protocol: Experiments were performed to determine if GalNAc conjugation to PMO or PMO-EEV could improve liver efficacy of PMO or PMO-EEV in EGFP-654 mice (Sazani et al., Nat Biotechnol. 2002 December; 20(12):1228-33. doi: 10.1038/nbt759.) in a single dosing schedule. Mice (EGFP-654, n=3/group; one female and two male) were injected intravenously (IV) with saline as control and 20 mpk of PMO1 and PMO1-EEV1; 0.2, 2, and 20 mpk (all normalized based on PMO dose) GalNAc-PMO2 and GalNAc-PMO2-EEV1 via both intravenous (TV) and subcutaneous (SC) route of administration. Both the PMO1 and the PMO2 have the same sequence and can be conjugated to EEV at the 3′ end, however, they have different functional handles at 5′ end. […] Thus, PMO1 is used as a control to when exploring the GalNAc liver targeting effects of the PMO2 GalNAc conjugates. An overview of the study design is illustrated in FIG. 16.
eGFP-654 transgenic mouse. The eGFP-654 transgenic mouse line was generated previously for evaluating splice switching oligonucleotides (Sazani et al. 2002 Nat Biotech; JAX stock #027617). The eGFP-654 transgene was cloned under a hybrid promoter with a cytomegalovirus early enhancer element, chicken beta-actin, and rabbit beta-globin, yielding widespread expression throughout the body. […]
eGFP relative protein analysis by […] (ELISA). […] Concentration was measured using a bicinchoninic acid (BCA) assay according to the manufacturer's protocol (Pierce BCA Protein Assay Kit 23227), diluting with the lysis buffer as needed. […] Sample eGFP levels were analyzed using enzyme-linked immunosorbent assay (ELISA) analysis with Abcam GFP ELISA kit (ab171581) according to the manufacturer's protocol. Sample eGFP levels were interpolated using the standard curve with the ELISA kit and reported as mass of eGFP detected (as measured by ELISA) per mass of protein content in the tissue lysate (as measured by BCA assay). the pg/mL of protein detected in each sample divided by the total protein concentration of lysates in ug/ml. […]

Substance	eGFP protein restoration, different EEVs / GalNAc ligands conjugated to GalNAc-PMO2 constructs (liver, 20 mpk PMO equivalent IV)	fold enhancement of efficacy compared to PMO1 (liver eGFP, 20 mpk IV)	fold enhancement of efficacy compared to PMO1-EEV1 (liver eGFP, 20 mpk IV)
Cyclo(FGFRRRRQ)-PEG12-OH (cyclo(FGFRRRRQ); also: PEG12-OH attached, position not clear) [EEV6]	highest eGFP protein restoration	–	–
PMO3-GalNAc-EEV1: "EEV1 was reacted with compound PMO1-Lys(BCN) with the following sequence (5′-GCT ATT ACC TTA ACC CAG-3′)"; "GalNAc-N3 was then reacted with PMO1-Lys(BCN)-EEV1" (DNA GCTATTACCTTAACCCAG; all phosphorodiamidate morpholino (PMO); PMO with Lys(BCN) linker bearing GalNAc and EEV1 cell-penetrating peptide)	–	14 fold	8.9 fold
